Reference: patent publication US11426385B2, “Methods of improving cancer chemotherapy” (THE REGENTS OF THE UNIVERSITY OF CALIFORNIA, priority 2017, dated 2022)
Several values for one entry are separate records, joined by “and”; a condition that tells them apart may be missing. Equal values may be shown once.

Columns and labels:
COX-1 = COX-1 inhibitory activity (Table 3); type: biochemical; parameters: dose or concentration left out as unconfirmed
[1] = test system: bladder cancer PDX BL0293; experiment: tumor growth and survival in NSG-PDX bladder cancer mouse model BL0293; type: in vivo, NSG mice
Experimental: (§1) Materials and Supplies. Bladder cancer subject-derived xenograft (PDX) models were provided by The Jackson Laboratory (JAX, Bar Harbor, Me.). […] All experiments utilized PDX models within the first five passages. […] Gemcitabine was purchased from LC Laboratories (Woburn, Mass.). […] The cell lines have not been tested and authenticated by the authors.
(§2) PDX bladder cancer. NSG PDX studies were performed at the University of California Davis with IACUC approval. […] Gemcitabine was dissolved in 0.9% saline and administered at a dose of 150 mg/kg (IP, weekly) for 4 weeks. Animal weight and tumor size were measured twice per week. […] The percentage of tumor growth inhibition (TGI) was calculated as follows; 100%×(1−[(V^treated(final day)−V^treated(initial day))/(V^control(final day)−V^control(initial day))]), where V is tumor volume.
(§3) Statistics. Data are presented as mean±standard error of the mean (SEM) or mean±standard deviation (SD). Group comparisons were carried out using one-way analysis of variance or Student's t test. Survival analysis was performed using the Kaplan-Meier method. A p value of less than 0.05 was considered statistically significant.

[2] = test system: bladder cancer PDX BL0269; experiment: tumor growth in NSG-PDX bladder cancer mouse model BL0269; type: in vivo, NSG mice
Experimental: as §1, §2, §3

p-ERK and p-AKT = experiment: Western blot of PDX BL0293 tumor tissue; type: in vivo, NSG mice; conditions: day 3; BL0293 tumors
Experimental: Blood samples from mice were collected and analyzed for complete blood count (CBC), blood urea nitrogen (BUN), aspartate aminotransferase (AST), creatinine and total bilirubin at the Veterinary Medicine Comparative Pathology Laboratory of University of California Davis. The tumor, heart, liver, spleen, lung and kidney were harvested and the tissue samples were fixed in formalin or frozen at −80° C. Tumor sections were stained with hematoxylin and eosin (H&E) or were used for immunohistochemistry analysis. A board-certified pathologist provided detailed interpretation of tumor histomorphology and scoring of immunohistochemical staining. Some of the tumor sections were lysed and chromatographed using SDS-PAGE followed by transfer onto a PVDF membrane. […] The membranes were then probed with horseradish peroxidase (HRP) tagged secondary antibodies and epitopes were detected using the ECL Plus Western Blotting Detection Reagent (GE Healthcare, Piscataway, N.J.). Cell proliferation and apoptosis assessed with Ki-67 and cleaved caspase-3 antibodies (Cell Signaling, Danvers, Mass.) using an immunohistochemistry kit per the manufacturer's instructions (BioGenex, Fremont, Calif.).

[3] = test system: 5637 bladder cancer cells; experiment: 72 hr cell viability assay (MTS) and combination index, 5637; type: cell-based, human; conditions: single drug, 72 hr
Experimental: Median effect analysis to determine in vitro drug-drug interaction. […] PTUPB was dissolved in dimethyl sulfoxide (DMSO) to a final stock concentration of 10 mM. […] Cells were seeded at 2,000-3,000 cells and 100 μl of medium per well into 96-well plates (Becton Dickinson, Franklin Lakes, N.J.), and incubated overnight. Different concentrations of these two drugs were diluted in culture media and added to each well. The plates were then incubated for an additional 72 hours. The control group was dosed with 0.2% DMSO. Cell viability assays (MTS) were performed according to the manufacturer's protocol (Promega, Madison, Wis.). […] Dose-response curves were generated with GraphPad Prism 5 software (GraphPad Software Inc., La Jolla, Calif.). The combination indices (CI) were determined based on the method of Chou et al (26). CI values were calculated with CompuSyn software (http://www.combosyn.com/).

COX-1 and COX-2 = conditions: cited from earlier work
[4] = test system: carboplatin-DNA adducts in BL0293 tumors; experiment: carboplatin-DNA adduct formation in vivo (accelerator mass spectrometry); conditions: carboplatin alone; 24 hours after carboplatin
Excerpt: (§4) Accelerator mass spectrometry to determine platinum-DNA adduct formation.
DNA was extracted using a Promega Wizard genomic DNA purification kit according to manufacturer's instructions. Ten micrograms of DNA per sample was submitted to Lawrence Livermore National Laboratory (LLNL) for AMS analysis using previously reported protocol (25).

[5] = test system: carboplatin-DNA adducts in 5637 bladder cancer cell line; experiment: carboplatin-DNA adduct formation in vitro (accelerator mass spectrometry)
Experimental: as §4
Cells were harvested at the 4 hr time point in one group of dishes and another group was washed and further incubated for 20 hr with fresh drug-free medium before cell harvest in order to determine DNA repair. Cell pellets were stored at −80° C. until DNA extraction.

Compound	COX-1 (% inhibition) (COX-1)	also measured
CS(=O)(=O)c1ccc(-n2nc(CNC(=O)Nc3ccc(C(F)(F)F)cc3)cc2-c2ccccc2)cc1 [compound 2324, 1-[1-(4-Methanesulfonyl-phenyl)-5-phenyl-1H-pyrazol-3-ylmethyl]-3-(4-trifluoromethyl-phenyl)-urea]	10.7%	–
CS(=O)(=O)c1ccc(-n2nc(CNC(=O)Nc3cccc(C(F)(F)F)c3)cc2-c2ccccc2)cc1 [compound 1861, 1-[1-(4-Methanesulfonyl-phenyl)-5-phenyl-1H-pyrazol-3-ylmethyl]-3-(3-trifluoromethyl-phenyl)-urea]	7.8%	–
N.N.[Cl][Pt][Cl] [cisplatin, reference compound]	–	overall survival ([1]; BL0293, PTUPB 30 mg/kg orally once daily, cisplatin 2 mg/kg i.v.): 47.0 days and 47 days; anti-tumor activity, single agent ([1]; mice bearing BL0293 tumors): moderate anti-tumor activity; tumor growth [2]: resistant; levels of p-ERK and p-AKT (p-ERK and p-AKT): did not significantly diminish; IC50 [3]: 4.5 µM
CS(=O)(=O)c1ccc(-n2nc(CCCNC(=O)Nc3cccc(C(F)(F)F)c3)cc2-c2ccccc2)cc1 [compound 1862, 1-{3-[1-(4-Methanesulfonyl-phenyl)-5-phenyl-1H-pyrazol-3-yl]-propyl}-3-(3-trifluoromethyl-phenyl)-urea]	6.4%	–
NS(=O)(=O)c1ccc(-n2nc(CCNC(=O)Nc3cccc(C(F)(F)F)c3)cc2-c2ccccc2)cc1 [compound 2313, 4-(5-Phenyl-3-{2-[3-(3-trifluoromethyl-phenyl)-ureido]-ethyl}-pyrazol-1-yl)-benzenesulfonamide]	22.0%	–
NS(=O)(=O)c1ccc(-n2nc(CCCNC(=O)Nc3ccc(Cl)cc3)cc2-c2ccccc2)cc1 [compound 2327, 4-(3-{3-[3-(4-Chloro-phenyl)-ureido]-propyl}-5-phenyl-pyrazol-1-yl)-benzenesulfonamide]	15.2%	–
NS(=O)(=O)c1ccc(-n2nc(CCCNC(=O)NC34CC5CC(CC(C5)C3)C4)cc2-c2ccccc2)cc1 [compound 2326, 4-{3-[3-(3-Adamantan-1-yl-ureido)-propyl]-5-phenyl-pyrazol-1-yl}-benzenesulfonamide]	6.7%	–
CS(=O)(=O)c1ccc(-n2nc(CNC(=O)NC34CC5CC(CC(C5)C3)C4)cc2-c2ccccc2)cc1 [compound 1860, 1-Adamantan-1-yl-3-[1-(4-methanesulfonyl-phenyl)-5-phenyl-1H-pyrazol-3-ylmethyl]-urea]	12.7%	–
NS(=O)(=O)c1ccc(-n2nc(CCCNC(=O)Nc3cccc(C(F)(F)F)c3)cc2-c2ccccc2)cc1 [compound 2246, 4-(5-Phenyl-3-{3-[3-(3-trifluoromethyl-phenyl)-ureido]-propyl}-pyrazol-1-yl)-benzenesulfonamide]	27.2%	–
COc1ccc2c(c1)c(CC(=O)O)c(C)n2C(=O)c1ccc(Cl)cc1 [indomethacin]	–	COX-2 (IC50)/COX-1 (IC50) ratio (COX-1 and COX-2): 33
CS(=O)(=O)c1ccc(-n2nc(CNC(=O)Nc3ccc(OC(F)(F)F)cc3)cc2-c2ccccc2)cc1 [compound 2323, 1-[1-(4-Methanesulfonyl-phenyl)-5-phenyl-1H-pyrazol-3-ylmethyl]-3-(4-trifluoromethoxy-phenyl)-urea]	10.4%	–
CC(C)(C)c1cc(CNC(=O)Nc2cccc(C(F)(F)F)c2)nn1-c1ccc(S(C)(=O)=O)cc1 [compound 2106, 1-[5-tert-Butyl-1-(4-methanesulfonyl-phenyl)-1H-pyrazol-3-ylmethyl]-3-(3-trifluoromethyl-phenyl)-urea]	2.4%	–
CC(=O)Oc1ccccc1C(=O)O [Aspirin, aspirin]	–	COX-2 (IC50)/COX-1 (IC50) ratio (COX-1 and COX-2): 0.32
O=C(NC12CC3CC(CC(C3)C1)C2)N[C@H]1CC[C@H](Oc2ccc(C(=O)O)cc2)CC1 [t-AUCB, trans-4-[4-(3-Adamantan-1-yl-ureido)-cyclohexyloxy]-benzoic acid]	–	potentiation of cisplatin with respect to inhibiting tumor growth ([2]; combined with cisplatin 2 mg/kg): moderate additive effect
CC(C)c1cccc(C(C)C)c1NC(=O)NCCCc1cc(-c2ccccc2)n(-c2ccc(S(N)(=O)=O)cc2)n1 [compound 2325, 4-(3-{3-[3-(2,6-Diisopropyl-phenyl)-ureido]-propyl}-5-phenyl-pyrazol-1-yl)-benzenesulfonamide]	6.2%	–
Cc1ccc(-c2cc(CCCNC(=O)Nc3cccc(C(F)(F)F)c3)nn2-c2ccc(S(N)(=O)=O)cc2)cc1 [compound 2152, 4-(5-p-Tolyl-3-{3-[3-(3-trifluoromethyl-phenyl)-ureido]-propyl}-pyrazol-1-yl)-benzenesulfonamide]	12.1%	–
NS(=O)(=O)c1ccc(-n2nc(CCCNC(=O)Nc3ccccc3)cc2-c2ccccc2)cc1 [compound 2245, 4-{5-Phenyl-3-[3-(3-phenyl-ureido)-propyl]-pyrazol-1-yl}-benzenesulfonamide]	15.8%	–
NS(=O)(=O)c1ccc(-n2nc(CCCNC(=O)NC3CCCCCC3)cc2-c2ccccc2)cc1 [compound 2247, 4-{3-[3-(3-Cycloheptyl-ureido)-propyl]-5-phenyl-pyrazol-1-yl}-benzenesulfonamide]	10.2%	–
Nc1ccn([C@@H]2O[C@H](CO)[C@@H](O)C2(F)F)c(=O)n1 [gemcitabine]	–	tumor growth [2]: resistant
CS(=O)(=O)c1ccc(-n2nc(CNC(=O)NC3CCCCCC3)cc2-c2ccccc2)cc1 [compound 2321, 1-Cycloheptyl-3-[1-(4-methanesulfonyl-phenyl)-5-phenyl-1H-pyrazol-3-ylmethyl]-urea]	3.4%	–
NS(=O)(=O)c1ccc(-n2nc(CCCNC(=O)Nc3ccc(OC(F)(F)F)cc3)cc2-c2ccccc2)cc1 [compound 2329, 4-(5-Phenyl-3-{3-[3-(4-trifluoromethoxy-phenyl)-ureido]-propyl}-pyrazol-1-yl)-benzenesulfonamide]	13.8%	–
carboplatin	–	carboplatin-DNA adduct levels in tumor DNA [4]: 1070±317 adducts/10^8 nt; DNA repair rate ([5]; 5637 cells): 21.2 +/−1.3 adducts/10^8 nt per hour; platinum-DNA adduct formation ([5]; after 4h, carboplatin 100 μM, PTUPB 10 μM simultaneously): 528±41 adducts per 10^8 nt; platinum-DNA adduct levels ([5]; at 24 hours (4 hours drug, 20 hours drug-free medium)): 104.1 +/−17.7 adducts/10^8 nt; carboplatin induced DNA adduct formation ([5]; pretreatment with 10 μM PTUPB for 5 hours, then carboplatin): 706 +/−26 adducts per 10^8 nt
NS(=O)(=O)c1ccc(-n2nc(NC(=O)Nc3cccc(C(F)(F)F)c3)cc2-c2ccccc2)cc1 [compound 2121, 4-{5-Phenyl-3-[3-(3-trifluoromethyl-phenyl)-ureido]-pyrazol-1-yl}-benzenesulfonamide]	33.9%	–
NS(=O)(=O)c1ccc(-n2nc(CNC(=O)Nc3cccc(C(F)(F)F)c3)cc2-c2ccccc2)cc1 [compound 2107, 4-{5-Phenyl-3-[3-(3-trifluoromethyl-phenyl)-ureidomethyl]-pyrazol-1-yl}-benzenesulfonamide]	16.9%	–
